The record followed here is the supplement of paper PMC11208160.
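Further: IS621 recombinase and bridge RNA in Escherichia coli cells.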

The nature of the data set: recombinant barcode read abundance after kanamycin selection (control-corrected) (log10(CPM+1)); higher = more efficient recombination; sequences stand for … in AGTGCAGAGAAAATCGGCCAGTTTTCTCTGCCTGCAGTCCGCATGCCGT…AGATTTATGCAGCGGACTGCCTTTCTCCCAAAGTGATAAACCGGACAGTATCATGGACCGGTTTTCCCGGTAATCCGTATTTGCAAGGTTGGTTTCACT; site = the 11-nt target. Put shortly:
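IS621 bridge RNA target-binding loops were paired with targets in a pooled library tested in E. coli. After co-electroporation with a donor plasmid, cells were plated in two replicates on chloramphenicol/ampicillin LB agar (control) and on chloramphenicol/ampicillin/kanamycin carrying 0.1 mM IPTG. Barcodes at recombinant junctions were counted as counts per million, averaged and control-corrected to give recombination efficiency. Values are log10(CPM+1).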
“TAGGCCACTTGGGTTCTAACCTGTTGCGT (site TAGGCCACTAC)”: the “recombinant barcode read abundance (log10)” value is 2.85. Next, “TAGGCCACTTGGGTTCTAACCTGTTGCGT (site TAGGCCACTAG)”: 0.0599. Regarding “TAGGCCACTTGGGTTCTAACCTGTTGCGT (site TAGGCCACTAT)”, the “recombinant barcode read abundance (log10)” value was 1.7. Next, “TAGGCGCCTTGGGTTCTAACCTGTTGCTT (site TAGGCGCCTAA)”: 1.03; “TAGGCGCCTTGGGTTCTAACCTGTTGCTT (site TAGGCGCCTAC)”: 0.263. Next, “TAGGCGCCTTGGGTTCTAACCTGTTGCTT (site TAGGCGCCTAG)”: 0.193; “TAGGCGCCTTGGGTTCTAACCTGTTGCTT (site TAGGCGCCTAT)”: 0.0771; “TAGGCTCCTTGGGTTCTAACCTGTTGCAT (site TAGGCTCCTAT)”: 1.19.

For the sequence “TAGGCTCCTTGGGTTCTAACCTGTTGCAT (site TAGGCTCCTCT)”, the “recombinant barcode read abundance (log10)” value stood at 0.0701. Next, “TAGGCTCCTTGGGTTCTAACCTGTTGCAT (site TAGGCTCCTGT)”: 0.0892; “TAGGCTCCTTGGGTTCTAACCTGTTGCAT (site TAGGCTCCTTT)”: 0.0761; “TAGGGCACTTGGGTTCTAACCTGTTGCTG (site TAGGGCACTCA)”: 2.1. For the sequence “TAGGGCACTTGGGTTCTAACCTGTTGCTG (site TAGGGCACTCG)”, the “recombinant barcode read abundance (log10)” value stood at 0.888.

On to “TAGGGCGCTTGGGTTCTAACCTGTTGCCT (site TAAGGAGCTAG)”, for which the “recombinant barcode read abundance (log10)” value was 0.204.

With “TAGGGCGCTTGGGTTCTAACCTGTTGCCT (site TAGGGCGCTAG)”, the “recombinant barcode read abundance (log10)” value came out at 1.01. Next, “TAGGTGCCTTGGGTTCTAACCTGTTGCAT (site TAGGTACCTAT)”: 1.21.

For “TAGGTGCCTTGGGTTCTAACCTGTTGCAT (site TAGGTCCCTAT)”, the “recombinant barcode read abundance (log10)” value came to 0.0424. Next, “TAGGTGCCTTGGGTTCTAACCTGTTGCAT (site TAGGTGCCTAT)”: 1.79; “TAGGTGCCTTGGGTTCTAACCTGTTGCAT (site TAGGTTCCTAT)”: 0.167. As to “TAGGTGCCTTGGGTTCTAACCTGTTGCGG (site TAGGTGACTCC)”, the “recombinant barcode read abundance (log10)” value turned out to be 0.134. Next, “TAGGTGCCTTGGGTTCTAACCTGTTGCGG (site TAGGTGCCTCC)”: 2.99; “TAGTAAGCTTGGGTTCTAACCTGTTGCTG (site TAGTAAGCTCA)”: 0.921. Next, “TAGTAAGCTTGGGTTCTAACCTGTTGCTG (site TAGTACGCTCT)”: 0.142; “TAGTACACTTGGGTTCTAACCTGTTGCAC (site ACCATGTCTCC)”: 0.0598.

Consider “TAGTACACTTGGGTTCTAACCTGTTGCAC (site TAGTACACTGT)”, for which the “recombinant barcode read abundance (log10)” value amounted to 1.55. Regarding “TAGTACTCTTGGGTTCTAACCTGTTGCTA (site TAGTACTCTAA)”, the “recombinant barcode read abundance (log10)” value worked out at 0.0398. Next, “TAGTACTCTTGGGTTCTAACCTGTTGCTA (site TAGTACTCTCA)”: 0.0859; “TAGTACTCTTGGGTTCTAACCTGTTGCTA (site TAGTACTCTGA)”: 0.164; “TAGTACTCTTGGGTTCTAACCTGTTGCTA (site TAGTACTCTTA)”: 1.58.

With “TAGTACTCTTGGGTTCTAACCTGTTGCTT (site TAGTACTCTAA)”, the “recombinant barcode read abundance (log10)” value came to 1.14. With “TAGTACTCTTGGGTTCTAACCTGTTGCTT (site TAGTACTCTCA)”, the “recombinant barcode read abundance (log10)” value came out at 0.0325. To “TAGTACTCTTGGGTTCTAACCTGTTGCTT (site TAGTACTCTGA)” belongs 0.199.
